Results reported in patent US12643887B2, “Heterocyclic derivatives with cardiomyocyte proliferation activity for treatment of heart diseases” (Tongji University, priority 2019, dated 2026).
Read-outs that look alike come from different tables or passages of the source.

Experiments:
human DYRK1A = target: T1, human DYRK1A (Homo sapiens, UniProt Q13627); test: DYRK1A enzyme assay (ADP-Glo); type: biochemical
T1 construct: Recombinant full-length DYRK1A (expressed in E. Coli cells with an N-terminal GST tag); GST (N); purchased SignalChem D09-10G; host or cells: E. coli
In short: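 ADP formed is quantified by luciferase luminescence (ADP-Glo) after a 60-minute, 25 °C reaction with 60 μM ATP and 20 μM DYRKtide peptide. Enzyme: 3 nM recombinant N-terminal GST DYRK1A, given 30 min compound preincubation in Tris pH 7.5/MgCl2/BSA/DTT buffer; % inhibition versus plate controls, four-parameter IC50.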

human HIPK1 = target: T2, human HIPK1 (Homo sapiens, UniProt Q86Z02); test: HIPK1 enzyme assay (ADP-Glo); type: biochemical
T2 construct: Recombinant human HIPK1 (156-555); GST (N); purchased SignalChem H03-11G; host or cells: Sf9 insect cells
In short: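 Recombinant GST-tagged HIPK1 (156-555, Sf9), 4 nM, preincubated 30 min at 25° C with compound in Tris pH 7.5/MgCl2/BSA/DTT, then reacted 90 min with 0.05 mg/ml MBP and 5 μM ATP. ADP formed read by ADP-Glo luminescence; IC50 from four-parameter logistic fit of % inhibition versus Max/Min controls.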

[1] = ADP-Glo, ATP 60 μM, read-out: DYRK1A IC50
[2] = ADP-Glo, ATP 5 μM, read-out: HIPK1 IC50

T2 sequence (Q86Z02 156-555): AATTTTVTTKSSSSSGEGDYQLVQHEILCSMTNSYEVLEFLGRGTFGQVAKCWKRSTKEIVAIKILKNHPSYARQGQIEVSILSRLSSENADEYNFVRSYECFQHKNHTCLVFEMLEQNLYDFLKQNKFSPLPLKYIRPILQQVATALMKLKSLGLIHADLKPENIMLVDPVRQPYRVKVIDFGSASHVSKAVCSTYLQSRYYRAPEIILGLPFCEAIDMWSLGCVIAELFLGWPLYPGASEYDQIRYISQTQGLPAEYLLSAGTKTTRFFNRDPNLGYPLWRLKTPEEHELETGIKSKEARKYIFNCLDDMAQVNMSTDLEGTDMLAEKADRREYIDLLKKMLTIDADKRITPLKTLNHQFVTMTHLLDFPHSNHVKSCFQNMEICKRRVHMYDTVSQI

| Structure (SMILES) | IC50 (human DYRK1A; [1]) | IC50 (human HIPK1; [2]) | IC50 (human DYRK1A) | IC50 (human HIPK1) |
| --- | --- | --- | --- | --- |
| CCN(C1=N/C(=C\c2ccc3c(c2)OCO3)C(=O)N1)c1ccccc1 [Example 4, (Z)-5-(benzo[d][1,3]dioxol-5-ylmethylene)-2-(ethyl(phenyl)amino)-3,5-dihydro-4H-imidazol-4-one] | 100 to 1000 nM | > 10000 nM |  |  |
| CC(=O)N(C1=N/C(=C\c2ccc3c(c2)OCO3)C(=O)N1)c1ccccc1 [Example 5, (Z)—N-(4-(benzo[d][1,3]dioxol-5-ylmethylene)-5-oxo-4,5-dihydro-1H-imidazol-2-yl)-N-phenylacetamide] |  |  | < 100 nM | 100 to 1000 nM |
| CN(C1=N/C(=C\c2ccc3ncccc3c2)C(=O)N1)c1ccc2ncsc2c1 [Example 85, (Z)-2-(benzo[d]thiazol-6-yl(methyl)amino)-5-(quinolin-6-ylmethylene)-3,5-dihydro-4H-imidazol-4-one] | 100 to 1000 nM | > 10000 nM |  |  |
| CN(C1=N/C(=C\c2ccc3[nH]ccc3c2)C(=O)N1)c1ccc2ncsc2c1 [Example 87, (Z)-5-((1H-indol-5-yl)methylene)-2-(benzo[d]thiazol-6-yl(methyl)amino)-3,5-dihydro-4H-imidazol-4-one] | > 10000 nM | > 10000 nM |  |  |
| CC(=O)N(C1=N/C(=C\c2ccc3ncsc3c2)C(=O)N1)c1ccc2ncsc2c1 [Example 91, (Z)—N-(benzo[d]thiazol-6-yl)-N-(4-(benzo[d]thiazol-6-ylmethylene)-5-oxo-4,5-dihydro-1H-imidazol-2-yl)acetamide] | < 100 nM | 100 to 1000 nM |  |  |
| O=C1NC(Nc2ccc3ncsc3c2)=N/C1=C\c1cncs1 [Example 92, (Z)-2-(benzo[d]thiazol-6-ylamino)-5-(thiazol-5-ylmethylene)-3,5-dihydro-4H-imidazol-4-one] | 100 to 1000 nM | 100 to 1000 nM |  |  |
| O=C1NC(=S)N/C1=C\c1ccc2sccc2c1 [Example 96, (Z)-5-(benzo[b]thiophen-5-ylmethylene)-2-thioxoimidazolidin-4-one] | > 10000 nM | > 10000 nM |  |  |
| Nc1ccc(NC2=N/C(=C\c3ccc4ncsc4c3)C(=O)N2)cc1 [Example 98, (Z)-2-((4-aminophenyl)amino)-5-(benzo[d]thiazol-6-ylmethylene)-3,5-dihydro-4H-imidazol-4-one] |  | 100 to 1000 nM |  |  |

Further lines, with some results ahead:

| IC50 (human DYRK1A; [1]) | IC50 (human HIPK1; [2]) | Structure (SMILES) | IC50 (human DYRK1A) | IC50 (human HIPK1) |
| --- | --- | --- | --- | --- |
| 1000 to 10000 nM | 1000 to 10000 nM | CN(C1=N/C(=C\c2ccc3ncsc3c2)C(=O)N1)c1ccc2c(c1)ncn2C [Example 86, (Z)-5-(benzo[d]thiazol-6-ylmethylene)-2-(methyl(1-methyl-1H-benzo[d]imidazol-5-yl)amino)-3,5-dihydro-4H-imidazol-4-one] |  |  |
| < 100 nM | > 10000 nM | CN1C(=O)/C(=C/c2ccc3ncsc3c2)N=C1Nc1ccc2ncsc2c1 [Example 88, (Z)-2-(benzo[d]thiazol-6-ylamino)-5-(benzo[d]thiazol-6-ylmethylene)-3-methyl-3,5-dihydro-4H-imidazol-4-one] |  |  |
| 100 to 1000 nM | 1000 to 10000 nM | COCCN(C1=N/C(=C\c2ccc3ncsc3c2)C(=O)N1)c1ccc2ncsc2c1 [Example 89, (Z)-2-(benzo[d]thiazol-6-yl(2-methoxyethyl)amino)-5-(benzo[d]thiazol-6-ylmethylene)-3,5-dihydro-4H-imidazol-4-one] |  |  |
| < 100 nM | > 10000 nM | Cc1nc2ccc(NC3=N/C(=C\c4ccc5ncsc5c4)C(=O)N3)cc2s1 [Example 90, (Z)-5-(benzo[d]thiazol-6-ylmethylene)-2-((2-methylbenzo[d]thiazol-6-yl)amino)-3,5-dihydro-4H-imidazol-4-one] |  |  |
| < 100 nM | 100 to 1000 nM | Cn1cnc2ccc(NC3=N/C(=C\c4ccc5ncsc5c4)C(=O)N3)cc21 [Example 93, (Z)-5-(benzo[d]thiazol-6-ylmethylene)-2-((1-methyl-1H-benzo[d]imidazol-6-yl)amino)-3,5-dihydro-4H-imidazol-4-one] |  |  |
|  | > 10000 nM | O=C1NC(Nc2ccc3ncsc3c2)=N/C1=C\c1ccc2nccnc2c1 [Example 94, (Z)-2-(benzo[d]thiazol-6-ylamino)-5-(quinoxalin-6-ylmethylene)-3,5-dihydro-4H-imidazol-4-one] |  |  |
| > 10000 nM | > 10000 nM | O=C1NC(Nc2ccc3ncsc3c2)=N/C1=C\c1ccc2cn[nH]c2c1 [Example 95, (Z)-5-((1H-indazol-6-yl)methylene)-2-(benzo[d]thiazol-6-ylamino)-3,5-dihydro-4H-imidazol-4-one] |  |  |
|  | 100 to 1000 nM | O=C1NC(Nc2ccc3nc[nH]c3c2)=N/C1=C\c1ccc2ncsc2c1 [Example 97, (Z)-2-((1H-benzo[d]imidazol-6-yl)amino)-5-(benzo[d]thiazol-6-ylmethylene)-3,5-dihydro-4H-imidazol-4-one] |  |  |
| 100 to 1000 nM | > 10000 nM | O=C1NC(N(Cc2ccccc2)c2ccc3ncsc3c2)=N/C1=C\c1ccc2ncsc2c1 [Example 99, (Z)-2-(benzo[d]thiazol-6-yl(benzyl)amino)-5-(benzo[d]thiazol-6-ylmethylene)-3,5-dihydro-4H-imidazol-4-one] |  |  |
| 100 to 1000 nM | > 10000 nM | CC(C)Nc1nc2ccc(NC3=N/C(=C\c4ccc5ncsc5c4)C(=O)N3)cc2s1 [Example 100, (Z)-5-(benzo[d]thiazol-6-ylmethylene)-2-((2-(isopropylamino)benzo[d]thiazol-6-yl)amino)-3,5-dihydro-4H-imidazol-4-one] |  |  |
|  | > 10000 nM | O=C1NC(Nc2ccc3sccc3c2)=N/C1=C\c1ccc2ncsc2c1 [Example 101, (Z)-2-(benzo[b]thiophen-5-ylamino)-5-(benzo[d]thiazol-6-ylmethylene)-3,5-dihydro-4H-imidazol-4-one] |  |  |
